Experimental data reported in patent US8957062B2, “Substituted cyclopropyl compounds, compositions containing such compounds and methods of treatment” (Merck Sharp & Dohme Corp., priority 2011, dated 2015).

Each compound was assayed against T1, human GPR119 (Homo sapiens, UniProt Q8TDV5) (assay: Measurement of GPR119 signaling (cAMP assay) in cells stably transfected with human GPR119). Conditions: stated in the example text; cAMP stimulation, human GPR119; read-out: GPR119 Human EC50.
T1 sequence (Q8TDV5 1-308 limits assumed): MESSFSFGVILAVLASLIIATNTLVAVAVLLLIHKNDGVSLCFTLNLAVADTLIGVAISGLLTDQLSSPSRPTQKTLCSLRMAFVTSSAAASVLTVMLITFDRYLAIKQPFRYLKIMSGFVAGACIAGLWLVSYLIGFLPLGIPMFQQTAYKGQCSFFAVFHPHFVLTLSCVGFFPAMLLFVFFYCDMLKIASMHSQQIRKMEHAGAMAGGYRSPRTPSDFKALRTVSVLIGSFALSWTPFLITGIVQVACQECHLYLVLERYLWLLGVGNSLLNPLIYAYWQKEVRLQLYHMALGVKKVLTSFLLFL
Assay type: cell-based
`Cc1cc(-n2cnnn2)cnc1OCC[C@@H]1C[C@@H]1C1CCN(c2nc(C(C)C)no2)CC1` [Example 225, 2-(2-{(1S,2R)-2-[1-(3-isopropyl-1,2,4-oxidiazol-5-yl)piperidin-4-yl]cyclopropyl}ethoxy]-3-methyl-5-(1H-tetrazol-1-yl)pyridine] showed an EC50 of 0.1 nM.
`CCc1nc(N2CCC([C@H]3C[C@H]3CCOc3ccc(S(C)(=O)=O)cn3)CC2)no1` [Example 233, 2-(2-{(1S,2R)-2-[1-(5-ethyl-1,2,4-oxidiazol-5-yl)piperidin-4-yl]cyclopropyl}ethoxy)-5-(methylsulfonyl)pyridine] was tested, and the EC50 was 9.2 nM.

Same assay, conditions: table column; cAMP stimulation, human GPR119; read-out: GPR119 Human EC50
In the case of `COCc1noc(N2CCC([C@H]3C[C@H]3CCOc3ccc(CC(=O)N4CC(F)C4)c(F)c3)CC2)n1` [Example 199], the EC50 is reported as 2 nM.
`COCc1noc(N2CCC([C@H]3C[C@H]3CCOc3ccc(CC(=O)N4CC(F)(F)C4)c(F)c3)CC2)n1` [Example 200] was tested, and the EC50 was 1.2 nM.
In the case of `COCc1noc(N2CCC([C@H]3C[C@H]3CCOc3ccc(CC(=O)N(C)C)c(F)c3)CC2)n1` [Example 201], the EC50 is reported as 5.9 nM.
Work on `COCc1noc(N2CCC([C@H]3C[C@H]3CCOc3ccc(CC(=O)N4CCOCC4)c(F)c3)CC2)n1` [Example 202] yielded an EC50 of 9.8 nM.
In the case of `COCc1noc(N2CCC([C@H]3C[C@H]3CCOc3ccc(CC(=O)N4CCC[C@@H]4C(F)(F)F)c(F)c3)CC2)n1` [Example 203], the EC50 is reported as 5.1 nM.
Compound `COCc1noc(N2CCC([C@H]3C[C@H]3CCOc3ccc(CC(=O)N4CCC[C@H]4C(F)(F)F)c(F)c3)CC2)n1` [Example 204] has an EC50 of 3.6 nM.
`COCc1noc(N2CCC([C@H]3C[C@H]3CCOc3cc(F)c(CC(=O)N4CCC4)c(F)c3)CC2)n1` [Example 205] was tested, and the EC50 was 1.2 nM.
Work on `COCc1noc(N2CCC([C@H]3C[C@H]3CCOc3cc(F)c(CC(=O)N(C)C)c(F)c3)CC2)n1` [Example 206] yielded an EC50 of 2.5 nM.
Compound `COCc1noc(N2CCC([C@H]3C[C@H]3CCOc3cc(F)c(CC(=O)N4CCOCC4)c(F)c3)CC2)n1` [Example 207] has an EC50 of 3.1 nM.
In the case of `CC(C)c1noc(N2CCC([C@H]3C[C@H]3CCOc3ccc(S(C)(=O)=O)cn3)CC2)n1` [Example 209], the EC50 is reported as 2 nM.
With `CS(=O)(=O)c1ccc(OCC[C@@H]2C[C@@H]2C2CCN(c3nc(C4CC4)no3)CC2)nc1` [Example 210] the EC50 was 6 nM.
In the case of `CCCc1noc(N2CCC([C@H]3C[C@H]3CCOc3ccc(S(C)(=O)=O)cn3)CC2)n1` [Example 211], the EC50 is reported as 8 nM.
`CS(=O)(=O)c1ccc(OCC[C@@H]2C[C@@H]2C2CCN(c3nc(C4CCC4)no3)CC2)nc1` [Example 212] was tested, and the EC50 was 4.8 nM.
For `Cc1noc(N2CCC([C@H]3C[C@H]3CCOc3ccc(S(C)(=O)=O)cn3)CC2)n1` [Example 213], the EC50 was 11 nM.
In the case of `CCc1noc(N2CCC([C@H]3C[C@H]3CCOc3ccc(S(C)(=O)=O)cn3)CC2)n1` [Example 214], the EC50 is reported as 3.2 nM.
For `COC(C)c1noc(N2CCC([C@H]3C[C@H]3CCOc3ccc(S(C)(=O)=O)cn3)CC2)n1` (stereo partly drawn) [Example 215], the EC50 was 5.8 nM.
For `COCCc1noc(N2CCC([C@H]3C[C@H]3CCOc3ccc(S(C)(=O)=O)cn3)CC2)n1` [Example 216], the EC50 was 26 nM.
`CS(=O)(=O)c1ccc(OCC[C@@H]2C[C@@H]2C2CCN(c3nc(COCC(F)(F)F)no3)CC2)nc1` [Example 217] was tested, and the EC50 was 7.8 nM.
With `CCOCc1noc(N2CCC([C@H]3C[C@H]3CCOc3ccc(S(C)(=O)=O)cn3)CC2)n1` [Example 218] the EC50 was 14 nM.
Compound `COCc1noc(N2CCC([C@H]3C[C@H]3CCOc3ccc(S(C)(=O)=O)cc3)CC2)n1` [Example 221] has an EC50 of 3.4 nM.
Work on `COCc1noc(N2CCC([C@H]3C[C@H]3CCOc3ccc(S(C)(=O)=O)c(F)c3)CC2)n1` [Example 222] yielded an EC50 of 0.9 nM.
`COCc1noc(N2CCC([C@H]3C[C@H]3CCOc3ccc(-n4cncn4)cc3)CC2)n1` [Example 223] was tested, and the EC50 was 7.2 nM.
With `COCc1noc(N2CCC([C@H]3C[C@H]3CCOc3ccc(-c4nnn(C)n4)cc3)CC2)n1` [Example 224] the EC50 was 6.4 nM.
For `COCc1noc(N2CCC([C@H]3C[C@H]3CCOc3ncc(-n4cnnn4)cc3C)CC2)n1` [Example 226], the EC50 was 2.3 nM.
`COC(C)c1noc(N2CCC([C@H]3C[C@H]3CCOc3ncc(-n4cnnn4)cc3C)CC2)n1` (stereo partly drawn) [Example 227] gave an EC50 of 0.9 nM.
`COCCc1noc(N2CCC([C@H]3C[C@H]3CCOc3ncc(-n4cnnn4)cc3C)CC2)n1` [Example 228] gave an EC50 of 2 nM.
Work on `Cc1cc(-n2cnnn2)cnc1OCC[C@@H]1C[C@@H]1C1CCN(c2nc(C(C)O)no2)CC1` (stereo partly drawn) [Example 229] yielded an EC50 of 5 nM.
Compound `COCc1noc(N2CCC([C@H]3C[C@H]3CCOc3ccc(-n4cnnn4)cn3)CC2)n1` [Example 230] has an EC50 of 1.6 nM.
`CC(C)c1noc(N2CCC([C@H]3C[C@H]3CCOc3ccc(-n4cnnn4)cn3)CC2)n1` [Example 231] showed an EC50 of 0.4 nM.
In the case of `COCCc1noc(N2CCC([C@H]3C[C@H]3CCOc3ccc(-n4cnnn4)cn3)CC2)n1` [Example 232], the EC50 is reported as 10.6 nM.
For `CC(C)c1nc(N2CCC([C@H]3C[C@H]3CCOc3ccc(S(C)(=O)=O)cn3)CC2)no1` [Example 234], the EC50 was 3.5 nM.
`CC(C)Cc1nc(N2CCC([C@H]3C[C@H]3CCOc3ccc(S(C)(=O)=O)cn3)CC2)no1` [Example 235] showed an EC50 of 6.5 nM.
Work on `CC(C)(C)c1nc(N2CCC([C@H]3C[C@H]3CCOc3ccc(S(C)(=O)=O)cn3)CC2)no1` [Example 236] yielded an EC50 of 1.7 nM.
In the case of `CS(=O)(=O)c1ccc(OCC[C@@H]2C[C@@H]2C2CCN(c3noc(CCC(F)(F)F)n3)CC2)nc1` [Example 237], the EC50 is reported as 18 nM.
Compound `CS(=O)(=O)c1ccc(OCC[C@@H]2C[C@@H]2C2CCN(c3noc(C4CC4)n3)CC2)nc1` [Example 238] has an EC50 of 22 nM.
`CC1CC1c1nc(N2CCC([C@H]3C[C@H]3CCOc3ccc(S(C)(=O)=O)cn3)CC2)no1` (stereo partly drawn) [Example 239] gave an EC50 of 7 nM.
`CC1(c2nc(N3CCC([C@H]4C[C@H]4CCOc4ccc(S(C)(=O)=O)cn4)CC3)no2)CC1` [Example 240] showed an EC50 of 5.2 nM.
`CS(=O)(=O)c1ccc(OCC[C@@H]2C[C@@H]2C2CCN(c3noc(C4CCC4)n3)CC2)nc1` [Example 241] showed an EC50 of 4 nM.
With `CS(=O)(=O)c1ccc(OCC[C@@H]2C[C@@H]2C2CCN(c3noc(C4CCCC4)n3)CC2)nc1` [Example 242] the EC50 was 11.6 nM.
Compound `CS(=O)(=O)c1ccc(OCC[C@@H]2C[C@@H]2C2CCN(c3noc(CC4CC4)n3)CC2)nc1` [Example 243] has an EC50 of 9.8 nM.
`CS(=O)(=O)c1ccc(OCC[C@@H]2C[C@@H]2C2CCN(c3noc(C4(C(F)(F)F)CC4)n3)CC2)nc1` [Example 244] showed an EC50 of 2.1 nM.
Compound `COCc1nc(N2CCC([C@H]3C[C@H]3CCOc3ccc(S(C)(=O)=O)cn3)CC2)no1` [Example 245] has an EC50 of 8.1 nM.
Compound `CCOCc1nc(N2CCC([C@H]3C[C@H]3CCOc3ccc(S(C)(=O)=O)cn3)CC2)no1` [Example 246] has an EC50 of 7.9 nM.
